Data as given in patent US9486422B2, “Small molecule inhibitors of Mcl-1 and the uses of thereof” (THE REGENTS OF THE UNIVERSITY OF MICHIGAN, priority 2011, dated 2016).

Experiments:
Bcl-w = biological target: T1, Bcl-w (Homo sapiens, UniProt Q92843); assay: FP-based binding assay, Bcl-w
T1 sequence (Q92843 1-155): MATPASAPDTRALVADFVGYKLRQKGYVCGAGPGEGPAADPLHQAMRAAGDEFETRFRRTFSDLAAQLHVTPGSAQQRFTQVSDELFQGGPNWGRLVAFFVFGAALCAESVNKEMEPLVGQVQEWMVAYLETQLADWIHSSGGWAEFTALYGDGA

[1] = biological target: Mcl-1/Bax protein-protein interactions (Homo sapiens, UniProt Q07820); assay: SPR competitive solution binding assay, Mcl-1 to immobilized Bax; details: Mcl-1 300 nM pre-incubated with inhibitor; read-out: IC50, inhibition of binding of Mcl-1 to Bax
Protocol: SPR experiments were performed using Biacore 2000 optical biosensors. Recombinant Bax, residues 1 to 100 (Novus Biologicals) and Mcl-1 proteins were used for competitive solution binding experiments. The details for immobilization of Bax protein, determination of the binding affinity of Mcl-1 to Bax, and conditions for testing Mcl-1 compounds are provided.
Recombinant Bax protein (residues 1-100) purchased from Novus Biologicals, Inc., was immobilized on a CM-5 sensor chip at different densities using standard EDC/NHS coupling chemistry followed by ethanolamine deactivation of the surfaces. […] Determination of kon, koff and Kd were calculated by simultaneous non-linear regression using BIAEvaluation software.
Using the same Bax immobilized CM5 chip, SPR competitive solution binding experiments were performed by pre-incubated Mcl-1 protein (300 nM) with tested small-molecule inhibitors for at least 30 minutes and then the reaction mixture was injected over the surfaces of the chip. Response units were measured at 60 seconds in the dissociation phase and the specific binding was calculated by subtracting the control surface (Fc1) signal from the surfaces with immobilized Bax. […] IC50 values were determined by non-linear least squares analysis using Graph Pad Prism 5.0 software.

BxPC-3 = assay: Cell growth inhibition (WST-8), BxPC-3; assay type: cell-based; details: Homo sapiens, BXPC-3, 96 h; 4 days treatment
Protocol: (§1) Human PC cell lines AsPC-1, BxPC-3 and Capan-2 were cultured in RPMI 1640 medium, while Panc-1 and MiaPaCa were cultured in DMEM medium (Life Technologies), all supplemented with 10% fetal bovine serum (Thermo Scientific HyClone). The rate of cell growth inhibition after treatment with increasing concentrations of the tested compounds was determined by WST-8 assay as described in the manufacturers protocol (Dojindo Molecular Technologies Inc.).

Panc-1 = assay: Cell growth inhibition (WST-8), Panc-1; assay type: cell-based; details: Homo sapiens, PANC-1, 96 h; 4 days treatment
Protocol: as §1

Panc-1 cells = assay: Induction of apoptosis, Annexin V/PI, Panc-1; assay type: cell-based, human
Protocol: An Annexin-V-FLUOS/Propidium iodide staining kit and ELISA detection kit (Roche Applied Science) were used to detect apoptosis in PC cells. Cells were treated with Mcl-1 inhibitors for different time points, harvested, washed with PBS and apoptosis was quantified according to manufacturer's protocol.

[2] = test system: cytochrome c and Smac release in Panc-1 cells; assay: Release of cytochrome c and Smac from mitochondria (Western blot); assay type: cell-based, human; details: 24 h treatment
Protocol: The cells were treated and harvested at the indicated time points after treatment. Total cell lysates were subjected to electrophoresis onto SDS-containing 4-20% polyacrylamide gels (Invitrogen), and transferred to polyvinylidene difluoride (PVDF) membranes (Thermo Scientific). Following blocking in 5% milk, membranes were incubated with a specific primary antibody, washed, and incubated with horseradish peroxidase linked secondary antibody (Santa Cruz). The signals were visualized with the chemiluminescent horseradish peroxidase antibody detection reagent (Roche Molecular Biochemicals). Primary antibodies included: caspase-3 (Enzo Life Sciences), Mcl-1 and actin (Santa Cruz), Bcl-xL (BD Transduction Laboratories); Bcl-2, Bax, pro-PARP and cytochrome-c (Cell Signaling), Bak (Calbiochem), and Smac (Abgent).

[3] = biological target: T2, Mcl-1/Bax and Mcl-1/Bak complexes in BxPC-3 cells (Homo sapiens, UniProt Q07820); assay: Immunoprecipitation with Mcl-1 antibody, BxPC-3; assay type: cell-based; details: 4 μM, 24 h
T2 construct: endogenous in cells; host or cells: BxPC-3
Protocol: Cell lysate (500 μg) were subjected to immunoprecipitation by adding 2.5-5 μg of anti-Mcl-1 antibody and incubation overnight at 4° C. After adding 30 μl of Protein G-agarose (Immunoprecipitation Kit, Sigma) and incubation for 4 h, the samples were centrifuged. The agarose pellet was then washed 7 times, resuspended in Laemmli buffer (Santa Cruz), and boiled for 5 min. Boiled samples were centrifuged, and supernatant was used for Western blot analysis.

[4] = test system: Bax/Bak-deficient (DKO) MEFs; assay: Induction of apoptosis in MEF DKO cells; assay type: cell-based, murine; details: 10 μM, 24 h
[5] = test system: activated Bax in Panc-1 cells; assay: Bax activation, 6A7 anti-Bax immunostaining, Panc-1; assay type: cell-based, human; details: 24 h
Protocol: (§2) Cells mounted on glass slides were permeabilized with PBS containing 0.3% Triton X-100, and blocked with 1% bovine serum albumin in PBS for 30 min at room temperature, followed with overnight incubation with anti-Bak 6A7 (Calbiochem) at 4° C. After thorough washing of the sections in PBS, a secondary antibody labeled with DyLight 488 (Thermo Scientific) was added and incubated for 2 h at room temperature. Nuclei were visualized with DAPI. Samples were analyzed with a FluoView 500 Confocal Laser Scanning Microscope (Olympus).

[6] = test system: activated Bax in BxPC-3 cells; assay: Bax activation, 6A7 anti-Bax immunostaining, BxPC-3; assay type: cell-based, human; details: 24 h
Protocol: as §2

[7] = test system: patient bone marrow derived plasma cells; assay: Apoptosis (Annexin V-FITC/PI), multiple myeloma patient cells; assay type: cell-based, human
Protocol: Blood or bone marrow samples from multiple myeloma patients was obtained from treated or untreated patients after informed consent. Plasma cells were obtained after gradient density centrifugation using Ficoll Hypaque. Some samples were purified for […] population using flow cytometry. In all cases, purity of the plasma cells was higher than 90%, as assessed by morphology.
MM cell lines were cultured in six-well plates and treated as described above. At the end of the treatment the cells were washed and resuspended in annexin binding buffer (10 mM 4-(2-hydroxyethyl)-1-piperazineethanesulfonic acid pH 7.4, 140 mM NaCl, 2.5 mM CaCl2) after which Annexin V-FITC and Propodium Iodide solution was added (5 micro L each) according to manufactures protocol (BD Bioscences). Flow cytometry was performed using a FACSCanto (BD Biosciences, San Jose, Calif., USA).

[8] = mouse, in vivo, iv, 60 mg/kg

Mcl-1/Bax protein-protein interactions, sequence (Q07820 171-327): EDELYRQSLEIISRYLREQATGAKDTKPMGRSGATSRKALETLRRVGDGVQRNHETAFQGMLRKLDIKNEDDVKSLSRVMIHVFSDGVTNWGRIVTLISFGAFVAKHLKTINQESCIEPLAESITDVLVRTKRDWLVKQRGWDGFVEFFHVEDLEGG
T2 sequence (Q07820 whole entry, one chain of several): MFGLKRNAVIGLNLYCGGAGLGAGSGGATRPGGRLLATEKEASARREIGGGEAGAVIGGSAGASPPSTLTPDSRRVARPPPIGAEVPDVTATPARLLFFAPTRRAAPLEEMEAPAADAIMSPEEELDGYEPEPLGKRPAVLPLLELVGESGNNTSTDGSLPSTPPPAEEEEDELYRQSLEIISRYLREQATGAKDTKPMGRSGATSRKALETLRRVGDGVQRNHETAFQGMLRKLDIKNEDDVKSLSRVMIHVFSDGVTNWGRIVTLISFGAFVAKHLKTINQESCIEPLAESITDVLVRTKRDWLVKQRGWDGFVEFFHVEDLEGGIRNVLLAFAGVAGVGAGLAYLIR

O=C(O)CSc1cc(NS(=O)(=O)c2ccc(Br)cc2)c2ccccc2c1O [Compound 9, 2-((4-(4-Bromophenylsulfonamido)-1-hydroxynaphthalen-2-yl)thio)acetic acid]
fold lower affinity to Bcl-w than to Mcl-1 (selectivity) (Bcl-w): 17 fold | Ki (Bcl-w; competitive FP, FAM-BID 2 nM, protein 40 nM, read-out: Bcl-w Ki ± SD): 8.19 ± 1.9 µM | IC50 [1]: 1.43 ± 0.14 µM | IC50 (BxPC-3): 3.4 ± 0.4 µM | IC50 (Panc-1): 4.4 ± 1.3 µM | early apoptotic cells (Panc-1 cells; 5 μM, 24 hours): 15% | early apoptotic cells (Panc-1 cells; 5 μM, 48 hours): 21% | early apoptotic cells (Panc-1 cells; 10 μM, 24 hours): 21% | early apoptotic cells (Panc-1 cells; 10 μM, 48 hours): 49% | concentration from which cytochrome c and Smac are released [2]: ≥ 10 µM | inhibition of endogenous interactions of Bax and Bak with Mcl-1 [3]: complete inhibition | apoptotic cells in MEF DKO cells [4]: 16% | concentration from which activated Bax increases [5]: ≥ 5 µM | concentration from which activated Bax increases [6]: ≥ 5 µM | apoptotic cells, early event ([7]; Pt 90620372, treated): 10.1% | apoptotic cells, late event ([7]; Pt 90620372, treated): 19.8% | apoptotic cells, early events ([7]; Pt 957034714, treated): 32.9% | apoptotic cells, late events ([7]; Pt 957034714, treated): 62.9% | apoptotic cells, early events ([7]; Pt 957060476, treated): 13.3% | apoptotic cells, late events ([7]; Pt 957060476, treated): 26.6% | histopathology (H&E) of normal tissues [8]: did not cause damage to tested tissues from kidney, liver and pancreas
